Measurements as given in patent publication US9708368B2, “Linear peptide antibiotics” (priority 2012, dated 2017).
≈ marks a conversion by molar mass, not a printed value. Numbered stars: 1 amine (or outer) side, 2 acyl side, 3 side chain; on linkers, the order of the positions; unused ones are H or OH. Square brackets hold non-standard residues; d marks the D form. Peptide text beside a SMILES is read from it. * marks the point of attachment. boroAla((+)-pinanediol) = C[C@H](N*)B1O[C@@H]2C[C@@H]3C[C@@H](C3(C)C)[C@]2(C)O1; Biphenylcarbonyl(4'-Bu) = CCCCc1ccc(-c2ccc(C(=O)*)cc2)cc1; X1 = C[C@H](N*)B1OC2C[C@@H]3C[C@@H](C3(C)C)[C@]2(C)O1; Benzoyl(4-(4-Cl-Ph)) = O=C(c1ccc(-c2ccc(Cl)cc2)cc1)*; X17 = O=C(/C=C/C=C/C12CC3CC(CC(C3)C1)C2)*; Pro(4R-NH2) = N[C@H]1CN[C@H](C(=O)O)C1; X19 = O=C(CCCCC12CC3CC(CC(C3)C1)C2)*; X21 = CCCCc1ccc(-c2ncc(C(=O)*)s2)cc1; X10 = CCCCc1ccc(-c2ccc(N*)cc2)cc1; NMeT = CN[C@H](C(=O)O)[C@@H](C)O; Hpg = N[C@H](C(=O)O)c1ccc(O)cc1; Lauroyl = CCCCCCCCCCCC(=O)*; boroAla = C[C@H](N*)B(O)O; Dab = NCC[C@H](N)C(=O)O; Abu = CC[C@H](N)C(=O)O; Dap = NC[C@H](N)C(=O)O; CO = O=C([*:1])[*:2]; βAla = NCCC(=O)O

Assays:
[1] = test system: Escherichia coli strain MC4100 IMP-4213, which harbors an LptD mutation; conditions: Method B; E. coli MC4100 IMP-4213 (LptD mutation); 35° C., 22 hours
Procedure: In vitro antimicrobial activity of each compound was determined by measuring minimal inhibitor concentrations (MICs) using the broth micro-dilution technique as approved by the Clinical and Laboratory Standards Institute (CLSI). […] Bacterial inocula were prepared by scraping cells into 1 mL of testing media (cation adjusted Mueller Hinton Broth supplemented with 0.002% v/v Tween-80) and diluting to a final OD600 nm of 0.01.
Test compounds were prepared in DMSO at a concentration of 10 mg/ml. […] Bacterial inocula were added to the two fold serial dilutions of test compounds to a final density of OD OD600 nm of 0.0005 and incubated stationarily at 35° C. for 22 hours, after which the plates were examined visually.

[2] = test system: methicillin resistant Staphylococcus aureus (MRSA) strain USA300 (NRS384); conditions: Method B, 35° C., 22 hours
[3] = target: S. aureus SPase (Staphylococcus aureus, UniProt P0A070); assay: biochemical
[4] = target: E. coli SPase (Escherichia coli, UniProt P00803); assay: Biochemical SPase activity assay (fluorogenic peptide substrate), E. coli enzyme

Structure (SMILES) | MIC (μg/mL) E. coli [1] [µg/mL] | MIC (μg/mL) S. aureus [2] [µg/mL] | IC50 [3] [nM] | IC50 [4] [nM]
CCCCc1ccc(-c2ccc(C(=O)NCCC(=O)N[C@@H](CCCCN)C(=O)N[C@@H](CCCCN)C(=O)N[C@@H](C)C(=O)N[C@@H](CC(N)=O)C(=O)N[C@@H](C)B3OC4C[C@@H]5C[C@@H](C5(C)C)[C@]4(C)O3)cc2)cc1 (stereo partly shown) [Compound 197] ({Biphenylcarbonyl(4'-Bu)-βAla}-KKAN-X1) | 1 (≈ 1.03 µM) | 0.3 (≈ 0.309 µM) | 6.2 | 11
CCCCCCCCCCCC(=O)N[C@@H](CCCCN)C(=O)N[C@H](C(=O)N[C@@H](C)C(=O)N[C@@H](CCCCN)C(=O)N[C@@H](C)B1OC2C[C@@H]3C[C@@H](C3(C)C)[C@]2(C)O1)[C@@H](C)O (stereo partly shown) [Compound 141] (Lauroyl-KTAK-X1) | 5.7 (≈ 6.83 µM) | 0.79 (≈ 0.947 µM) | 23 | 33
CCCCc1ccc(-c2ccc(C(=O)N[C@@H](CCCCN)C(=O)N3CCC[C@H]3C(=O)N[C@@H](C)C(=O)N[C@@H](CC(N)=O)C(=O)N[C@@H](C)B(O)O)cc2)cc1 [Compound 158] ({Biphenylcarbonyl(4'-Bu)}-KPAN-boroAla) | 5 (≈ 6.8 µM) | 5.7 (≈ 7.75 µM) | 400 | 33
CCCCc1ccc(-c2ncc(C(=O)N[C@@H](CCN)C(=O)N[C@H](C(=O)N[C@@H](C)C(=O)N[C@@H](CCCCN)C(=O)N[C@@H](C)B3OC4C[C@@H]5C[C@@H](C5(C)C)[C@]4(C)O3)[C@@H](C)O)s2)cc1 (stereo partly shown) [Compound 248] (X21-[Dab]TAK-X1) | 0.25 (≈ 0.288 µM) | 0.25 (≈ 0.288 µM) | 170 | 11
CCCCc1ccc(-c2ccc(C(=O)NCCC(=O)N[C@@H](CCCCN)C(=O)N[C@H](C(=O)N[C@@H](C)C(=O)N[C@@H](CC(N)=O)C(=O)N[C@@H](C)B3OC4C[C@@H]5C[C@@H](C5(C)C)[C@]4(C)O3)c3ccc(O)cc3)cc2)cc1 (stereo partly shown) [Compound 209] ({Biphenylcarbonyl(4'-Bu)-βAla}-K[Hpg]AN-X1) | 2.5 (≈ 2.52 µM) | 1 (≈ 1.01 µM) | 15 | 12
CCCCc1ccc(-c2ccc(C(=O)NCCC(=O)N[C@@H](CCCCN)C(=O)N[C@H](C(=O)N[C@@H](C)C(=O)N[C@H](C(=O)N[C@@H](C)B3O[C@@H]4C[C@@H]5C[C@@H](C5(C)C)[C@]4(C)O3)C(C)C)[C@@H](C)O)cc2)cc1 [Compound 194] ({Biphenylcarbonyl(4'-Bu)-βAla}-KTAV-{boroAla((+)-pinanediol)}) | 6.3 (≈ 6.77 µM) | 0.71 (≈ 0.763 µM) | 4.7 | 16
C[C@H](NC(=O)[C@H](CCCCN)NC(=O)[C@H](C)NC(=O)[C@H](CCCCN)NC(=O)[C@H](CN)NC(=O)c1ccc(-c2ccc(Cl)cc2)cc1)B(O)O [Compound 180] ({Benzoyl(4-(4-Cl-Ph))}-[Dap]KAK-boroAla) | 1 (≈ 1.39 µM) | 1 (≈ 1.39 µM) | 280 | 11
CCCCc1ccc(-c2ccc(C(=O)N[C@@H](CCCCN)C(=O)N[C@H](C(=O)N[C@@H](CC)C(=O)N[C@@H](CC(N)=O)C(=O)N[C@@H](C)B3O[C@@H]4C[C@@H]5C[C@@H](C5(C)C)[C@]4(C)O3)[C@@H](C)O)cc2)cc1 [Compound 144] ({Biphenylcarbonyl(4'-Bu)}-KT[Abu]N-{boroAla((+)-pinanediol)}) | 0.25 (≈ 0.282 µM) | 0.25 (≈ 0.282 µM) | 36 | 18
C[C@H](NC(=O)[C@H](CCCCN)NC(=O)[C@H](C)NC(=O)[C@@H](NC(=O)[C@H](CN)NC(=O)c1ccc(-c2ccc(Cl)cc2)cc1)[C@@H](C)O)B1OC2C[C@@H]3C[C@@H](C3(C)C)[C@]2(C)O1 (stereo partly shown) [Compound 167] ({Benzoyl(4-(4-Cl-Ph))}-[Dap]TAK-X1) | 4 (≈ 4.85 µM) | 1.7 (≈ 2.06 µM) | 190 | 5.2
CCCCc1ccc(-c2ccc(C(=O)N[C@H](CO)C(=O)N[C@H](C)C(=O)NCC(=O)N(C)[C@H](C(=O)N[C@@H](C)C(=O)N[C@@H](CC(N)=O)C(=O)N[C@@H](C)B3OC4C[C@@H]5C[C@@H](C5(C)C)[C@]4(C)O3)[C@@H](C)O)cc2)cc1 (stereo partly shown) [Compound 226] ({Biphenylcarbonyl(4'-Bu)}-[dS][dA]G[NMeT]AN-X1) | 25 (≈ 25.6 µM) | 2.8 (≈ 2.87 µM) | 140 | 440
CCCCc1ccc(-c2ccc(C(=O)N[C@@H](CCCNC(=N)N)C(=O)N[C@H](C(=O)N[C@@H](C)C(=O)N[C@@H](CCCCN)C(=O)N[C@@H](C)B3O[C@@H]4C[C@@H]5C[C@@H](C5(C)C)[C@]4(C)O3)[C@@H](C)O)cc2)cc1 [Compound 174] ({Biphenylcarbonyl(4'-Bu)}-RTAK-{boroAla((+)-pinanediol)}) | 0.5 (≈ 0.546 µM) | 0.25 (≈ 0.273 µM) | 130 | 59
CCCCc1ccc(-c2ccc(C(=O)NCCC(=O)N[C@@H](CCCCN)C(=O)N[C@@H](CCC(N)=O)C(=O)N[C@@H](C)C(=O)N[C@@H](CCCCN)C(=O)N[C@@H](C)B3OC4C[C@@H]5C[C@@H](C5(C)C)[C@]4(C)O3)cc2)cc1 (stereo partly shown) [Compound 216] ({Biphenylcarbonyl(4'-Bu)-βAla}-KQAK-X1) | 4 (≈ 4.06 µM) | 0.21 (≈ 0.213 µM) | 4.1 | 29
C[C@H](NC(=O)[C@H](CCCCN)NC(=O)[C@H](C)NC(=O)[C@@H](NC(=O)[C@H](CCN)NC(=O)/C=C/C=C/C12CC3CC(CC(C3)C1)C2)[C@@H](C)O)B1O[C@@H]2C[C@@H]3C[C@@H](C3(C)C)[C@]2(C)O1 [Compound 240] (X17-[Dab]TAK-{boroAla((+)-pinanediol)}) | 4 (≈ 4.77 µM) | 0.71 (≈ 0.847 µM) | 88 | 28
CCCCc1ccc(-c2ccc(C(=O)NCCC(=O)N[C@@H](CCCCN)C(=O)N[C@@H](CCCCN)C(=O)N[C@@H](C)C(=O)N[C@@H](CCCCN)C(=O)N[C@@H](C)B3OC4C[C@@H]5C[C@@H](C5(C)C)[C@]4(C)O3)cc2)cc1 (stereo partly shown) [Compound 207] ({Biphenylcarbonyl(4'-Bu)-βAla}-KKAK-X1) | 2 (≈ 2.03 µM) | 0.099 (≈ 0.1 µM) | 13 | 87
CCCCc1ccc(-c2ccc(C(=O)N[C@@H](CCCCN)C(=O)NC(C(=O)N[C@@H](C)C(=O)N[C@@H](CCCCN)C(=O)N[C@@H](C)B(O)O)c3ccc(OC)cc3)cc2)cc1 (stereo partly shown) [Compound 166] | 0.5 (≈ 0.613 µM) | 0.63 (≈ 0.772 µM) | 350 | 36
CCCCc1ccc(-c2ccc(C(=O)N[C@@H](CCCCN)C(=O)N[C@@H](CN)C(=O)N[C@@H](C)C(=O)N[C@@H](CC(C)C)C(=O)N[C@@H](C)B(O)O)cc2)cc1 [Compound 165] ({Biphenylcarbonyl(4'-Bu)}-K[Dap]AL-boroAla) | 0.63 (≈ 0.87 µM) | 0.63 (≈ 0.87 µM) | 410 | 120
CCCCc1ccc(-c2ccc(C(=O)N[C@@H](CCCCN)C(=O)N3C[C@H](N)C[C@H]3C(=O)N[C@@H](C)C(=O)N[C@@H](CC(C)C)C(=O)N[C@@H](C)B(O)O)cc2)cc1 [Compound 152] ({Biphenylcarbonyl(4'-Bu)}-K[Pro(4R-NH2)]AL-boroAla) | 0.5 (≈ 0.667 µM) | 0.4 (≈ 0.534 µM) | 350 | 25
C[C@H](NC(=O)[C@H](CCCCN)NC(=O)[C@H](C)NC(=O)[C@@H](NC(=O)[C@H](CCN)NC(=O)CCCCC12CC3CC(CC(C3)C1)C2)[C@@H](C)O)B1OC2C[C@@H]3C[C@@H](C3(C)C)[C@]2(C)O1 (stereo partly shown) [Compound 239] (X19-[Dab]TAK-X1) | 2 (≈ 2.38 µM) | 0.71 (≈ 0.843 µM) | 670 | 17
CCCCc1ccc(-c2ccc(CNCC[C@H](NC(C)=O)C(=O)N[C@H](C(=O)N[C@@H](C)C(=O)N[C@@H](CCCCN)C(=O)N[C@@H](C)B3OC4C[C@@H]5C[C@@H](C5(C)C)[C@]4(C)O3)[C@@H](C)O)cc2)cc1 (stereo partly shown) [Compound 277] | 32 (≈ 36 µM) | 0.5 (≈ 0.563 µM) | 110 | 680
CCCCc1ccc(-c2ccc(C(=O)N[C@@H](CCCCN)C(=O)N[C@H](C(=O)N[C@@H](C)C(=O)N[C@@H](CC(N)=O)C(=O)N[C@@H](C)B(O)O)[C@@H](C)O)cc2)cc1 [Compound 131] ({Biphenylcarbonyl(4'-Bu)}-KTAN-boroAla) | 0.44 (≈ 0.595 µM) | 0.45 (≈ 0.608 µM) | 98 | 19
CCCCc1ccc(-c2ccc(NC(=O)N[C@@H](CCCCN)C(=O)N[C@H](C(=O)N[C@@H](C)C(=O)N[C@@H](CC(N)=O)C(=O)N[C@@H](C)B3OC4C[C@@H]5C[C@@H](C5(C)C)[C@]4(C)O3)[C@@H](C)O)cc2)cc1 (stereo partly shown) [Compound 263] ({X10-CO}-KTAN-X1) | 2 (≈ 2.25 µM) | 0.71 (≈ 0.799 µM) | 72 | 88
CCCCc1ccc(-c2ccc(C(=O)N[C@@H](CCN)C(=O)N[C@H](C(=O)N[C@@H](C)C(=O)N[C@@H](CCCCN)C(=O)N[C@@H](C)B3OC4C[C@@H]5C[C@@H](C5(C)C)[C@]4(C)O3)[C@@H](C)O)nc2)cc1 (stereo partly shown) [Compound 233] | 1 (≈ 1.16 µM) | 0.5 (≈ 0.581 µM) | 220 | 29
